Molecules are shown by their SMILES. Where a name gives a salt, the structure may show the parent alone.

In this experiment the target is ROCK2 (Homo sapiens, UniProt O75116). Description: ROCK assay: phosphorylation of FITC peptide substrate, LABCHIP 3000 mobility shift. Type of experiment: biochemical. The conditions noted are these: 5 μM ATP, 1.5 μM peptide substrate; read-out: ROCK2 Activity (ROCK IC50 range). The method, boiled down: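 Rho kinase variant phosphorylates 1.5 μM FITC-AHA-AKRRRLSSLRA-OH with 5 μM ATP in 20 mM HEPES pH 7.5, 20 mM MgCl2, 0.015% Brij-35, 4 mM DTT, DMSO <2%. EDTA stops the reaction, and phospho and non-phospho peptides are resolved by LabChip 3000 mobility shift. IC50 from dose-response curve fit.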
ROCK2, sequence (O75116 whole entry, species assumed): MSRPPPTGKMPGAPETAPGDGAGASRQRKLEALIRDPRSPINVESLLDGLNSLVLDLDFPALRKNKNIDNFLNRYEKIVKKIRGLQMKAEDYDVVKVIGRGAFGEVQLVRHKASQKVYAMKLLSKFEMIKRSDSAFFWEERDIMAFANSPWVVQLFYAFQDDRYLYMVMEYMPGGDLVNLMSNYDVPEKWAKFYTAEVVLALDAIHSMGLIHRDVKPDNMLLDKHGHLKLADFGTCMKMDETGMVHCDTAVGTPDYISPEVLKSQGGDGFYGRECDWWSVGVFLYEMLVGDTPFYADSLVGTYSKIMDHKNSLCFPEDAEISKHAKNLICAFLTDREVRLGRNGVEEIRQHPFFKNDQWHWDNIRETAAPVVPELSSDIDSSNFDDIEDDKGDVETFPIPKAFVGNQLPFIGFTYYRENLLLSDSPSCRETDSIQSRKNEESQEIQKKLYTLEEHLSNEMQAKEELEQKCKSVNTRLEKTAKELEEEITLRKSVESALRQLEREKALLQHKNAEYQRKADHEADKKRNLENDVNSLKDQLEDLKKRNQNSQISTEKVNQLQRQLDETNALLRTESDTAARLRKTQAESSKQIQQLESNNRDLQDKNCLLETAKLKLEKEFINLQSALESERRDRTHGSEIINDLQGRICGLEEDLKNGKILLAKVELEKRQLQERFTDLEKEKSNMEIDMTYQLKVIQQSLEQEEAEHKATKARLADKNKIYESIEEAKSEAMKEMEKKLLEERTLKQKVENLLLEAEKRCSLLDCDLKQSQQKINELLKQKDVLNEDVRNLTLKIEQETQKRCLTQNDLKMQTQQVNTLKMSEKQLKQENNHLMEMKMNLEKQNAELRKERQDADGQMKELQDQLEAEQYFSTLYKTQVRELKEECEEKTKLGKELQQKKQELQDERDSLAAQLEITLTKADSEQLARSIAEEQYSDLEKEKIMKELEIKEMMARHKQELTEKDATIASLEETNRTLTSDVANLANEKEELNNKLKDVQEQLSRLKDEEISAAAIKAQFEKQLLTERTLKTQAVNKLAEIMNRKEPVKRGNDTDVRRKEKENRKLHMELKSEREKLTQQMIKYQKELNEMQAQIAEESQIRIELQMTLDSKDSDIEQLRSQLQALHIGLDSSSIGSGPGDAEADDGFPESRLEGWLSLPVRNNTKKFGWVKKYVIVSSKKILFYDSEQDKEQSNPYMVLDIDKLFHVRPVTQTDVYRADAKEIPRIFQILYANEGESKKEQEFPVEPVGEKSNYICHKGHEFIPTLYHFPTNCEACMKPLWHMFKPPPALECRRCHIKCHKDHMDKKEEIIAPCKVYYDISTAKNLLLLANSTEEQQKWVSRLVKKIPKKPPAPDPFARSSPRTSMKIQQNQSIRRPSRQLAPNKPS
A word on the IC50: it is the concentration at which inhibition is half-maximal. Consider `CC(C)(C)n1cc(-c2ccc3c(c2)CCN3C(=O)NC2CC3(C2)CC(c2n[nH]c(=O)c4ccccc24)C3)cn1` [Example 242, 5-(1-(tert-butyl)-1H-pyrazol-4-yl)-N-((aR)-6-(4-oxo-3,4-dihydrophthalazin-1-yl)spiro[3.3]heptan-2-yl)indoline-1-carboxamide], for which the IC50 fell in the range of 2.01 to 5 nM. Regarding `O=C(NC1CC2(C1)CC(c1n[nH]c(=O)c3ccccc13)C2)N1CCc2cc(-c3cnn(C4CCOC4)c3)ccc21` [Example 243, N-((aR)-6-(4-oxo-3,4-dihydrophthalazin-1-yl)spiro[3.3]heptan-2-yl)-5-(1-(tetrahydrofuran-3-yl)-1H-pyrazol-4-yl)indoline-1-carboxamide], the IC50 lay in the range of 2.01 to 5 nM. For the molecule `CC(C)n1cc(-c2ccc3c(c2)CCN3C(=O)NC2CC3(C2)CC(c2n[nH]c(=O)c4ccccc24)C3)c(C(F)(F)F)n1` [Example 244, 5-(1-isopropyl-3-(trifluoromethyl)-1H-pyrazol-4-yl)-N-((aR)-6-(4-oxo-3,4-dihydrophthalazin-1-yl)spiro[3.3]heptan-2-yl)indoline-1-carboxamide], the IC50 lay within 5.1 to 15 nM. Under `O=C(NC1CC2(C1)CC(c1n[nH]c(=O)c3ccccc13)C2)N1CCc2cc(CCC(F)(F)F)ccc21` [Example 245, N-((aR)-6-(4-oxo-3,4-dihydrophthalazin-1-yl)spiro[3.3]heptan-2-yl)-5-(3,3,3-trifluoropropyl)indoline-1-carboxamide] stands 5.1 to 15 nM; under `Cc1nn(C)c(C)c1-c1ccc2c(c1)CN(C(=O)NC1CC3(C1)CC(c1n[nH]c(=O)c4ccccc14)C3)C2` [Example 246, N-((aR)-6-(4-oxo-3,4-dihydrophthalazin-1-yl)spiro[3.3]heptan-2-yl)-5-(1,3,5-trimethyl-1H-pyrazol-4-yl)isoindoline-2-carboxamide], 2.01 to 5 nM. Consider `O=C(NC1CC2(C1)CC(c1n[nH]c(=O)c3ccccc13)C2)N1Cc2ccc(-c3cnn(C4CC4)c3)cc2C1` [Example 247, 5-(1-cyclopropyl-1H-pyrazol-4-yl)-N-((aR)-6-(4-oxo-3,4-dihydrophthalazin-1-yl)spiro[3.3]heptan-2-yl)isoindoline-2-carboxamide], for which the IC50 fell in the range of 2.01 to 5 nM. On to `Cn1cc(-c2ccc3c(c2)CN(C(=O)NC2CC4(C2)CC(c2n[nH]c(=O)c5ccccc25)C4)C3)c(C(F)(F)F)n1` [Example 248, 5-(1-methyl-3-(trifluoromethyl)-1H-pyrazol-4-yl)-N-((aR)-6-(4-oxo-3,4-dihydrophthalazin-1-yl)spiro[3.3]heptan-2-yl)isoindoline-2-carboxamide], for which the IC50 is 5.1 to 15 nM. For `CC(C)n1cc(-c2ccc3c(c2)CN(C(=O)NC2CC4(C2)CC(c2n[nH]c(=O)c5ccccc25)C4)C3)c(C(F)(F)F)n1` [Example 249, 5-(1-isopropyl-3-(trifluoromethyl)-1H-pyrazol-4-yl)-N-((aR)-6-(4-oxo-3,4-dihydrophthalazin-1-yl)spiro[3.3]heptan-2-yl)isoindoline-2-carboxamide], the IC50 was 5.1 to 15 nM. Regarding `Cn1cc(-c2ccc3c(c2)CN(C(=O)NC2CC4(C2)CC(c2n[nH]c(=O)c5ccccc25)C4)C3)cn1` [Example 250, 5-(1-methyl-1H-pyrazol-4-yl)-N-((aR)-6-(4-oxo-3,4-dihydrophthalazin-1-yl)spiro[3.3]heptan-2-yl)isoindoline-2-carboxamide], the IC50 lay in the range of 5.1 to 15 nM.

Take `O=C(NC1CC2(C1)CC(c1n[nH]c(=O)c3ccccc13)C2)N1Cc2ccc(-c3cnn(C4CCOCC4)c3)cc2C1` [Example 251, N-((aR)-6-(4-oxo-3,4-dihydrophthalazin-1-yl)spiro[3.3]heptan-2-yl)-5-(1-(tetrahydro-2H-pyran-4-yl)-1H-pyrazol-4-yl)isoindoline-2-carboxamide]: the IC50 lay in the range of 5.1 to 15 nM. `CC(C)(C)n1cc(-c2ccc3c(c2)CN(C(=O)NC2CC4(C2)CC(c2n[nH]c(=O)c5ccccc25)C4)C3)cn1` [Example 252, 5-(1-(tert-butyl)-1H-pyrazol-4-yl)-N-((aR)-6-(4-oxo-3,4-dihydrophthalazin-1-yl)spiro[3.3]heptan-2-yl)isoindoline-2-carboxamide]: the IC50 lay within 5.1 to 15 nM. Under `[2H]C([2H])([2H])n1cc(-c2ccc3c(c2)CN(C(=O)NC2CC4(C2)CC(c2n[nH]c(=O)c5ccccc25)C4)C3)cn1` [Example 253, 5-(1-(^2H3)methyl-1H-pyrazol-4-yl)-N-((aR)-6-(4-oxo-3,4-dihydrophthalazin-1-yl)spiro[3.3]heptan-2-yl)isoindoline-2-carboxamide] stands 5.1 to 15 nM. Under `CC1(C)CN(C(=O)NC2CC3(C2)CC(c2n[nH]c(=O)c4ccccc24)C3)c2ccccc21` (stereo not shown) [Example 255] stands 5.1 to 15 nM. Turning to `O=C(NC1CC2(C1)CC(c1n[nH]c(=O)c3ccccc13)C2)N1CCc2cccnc21` [Example 256, N-((aR)-6-(4-oxo-3,4-dihydrophthalazin-1-yl)spiro[3.3]heptan-2-yl)-2,3-dihydro-1H-pyrrolo[2,3-b]pyridine-1-carboxamide], the IC50 fell in the range of 15.1 to 100 nM. Regarding `O=C(NC1CC2(C1)CC(c1n[nH]c(=O)c3ccccc13)C2)N1Cc2cccnc2C1` (stereo not shown) [Example 257], the IC50 was in the range of 15.1 to 100 nM.

`COc1ccc2c(c1)CCN2C(=O)NC1CC2(C1)CC(c1n[nH]c(=O)c3ccccc13)C2` [Example 258, 5-methoxy-N-((aR)-6-(4-oxo-3,4-dihydrophthalazin-1-yl)spiro[3.3]heptan-2-yl)indoline-1-carboxamide]: the IC50 was in the range of 5.1 to 15 nM. Consider `O=C(NC1CC2(C1)CC(c1n[nH]c(=O)c3ccccc13)C2)N1CCc2ccc(C(F)(F)F)cc21` [Example 259, N-((aR)-6-(4-oxo-3,4-dihydrophthalazin-1-yl)spiro[3.3]heptan-2-yl)-6-(trifluoromethyl)indoline-1-carboxamide], for which the IC50 fell in the range of 5.1 to 15 nM. With `CN(C)S(=O)(=O)c1ccc2c(c1)CCN2C(=O)NC1CC2(C1)CC(c1n[nH]c(=O)c3ccccc13)C2` [Example 260, 5-(N,N-dimethylsulfamoyl)-N-((aR)-6-(4-oxo-3,4-dihydrophthalazin-1-yl)spiro[3.3]heptan-2-yl)indoline-1-carboxamide], the IC50 lay within 5.1 to 15 nM. As to `O=C(NC1CC2(C1)CC(c1n[nH]c(=O)c3ccccc13)C2)N1CC(CN2CCOCC2)c2ccccc21` [Example 261, 3-(morpholinomethyl)-N-((aR)-6-(4-oxo-3,4-dihydrophthalazin-1-yl)spiro[3.3]heptan-2-yl)indoline-1-carboxamide], the half-inhibitory concentration (IC50) is 15.1 to 100 nM. Under `Cc1ccc(-c2ncc3c(n2)CN(C(=O)NC2CC4(C2)CC(c2n[nH]c(=O)c5ccccc25)C4)C3)cc1` [Example 262, N-((aR)-6-(4-oxo-3,4-dihydrophthalazin-1-yl)spiro[3.3]heptan-2-yl)-2-(p-tolyl)-5H-pyrrolo[3,4-d]pyrimidine-6(7H)-carboxamide] stands 100 to 2100 nM. Under `COc1ccc2c(c1)CN(C(=O)NC1CC3(C1)CC(c1n[nH]c(=O)c4ccccc14)C3)C2` [Example 263, 5-methoxy-N-((aR)-6-(4-oxo-3,4-dihydrophthalazin-1-yl)spiro[3.3]heptan-2-yl)isoindoline-2-carboxamide] stands 5.1 to 15 nM; under `O=C(NC1CC2(C1)CC(c1n[nH]c(=O)c3ccccc13)C2)N1Cc2ccncc2C1` [Example 264, N-((aR)-6-(4-oxo-3,4-dihydrophthalazin-1-yl)spiro[3.3]heptan-2-yl)-1H-pyrrolo[3,4-c]pyridine-2(3H)-carboxamide], 15.1 to 100 nM; under `O=C(N[C@H]1CC2(C1)C[C@H](c1n[nH]c(=O)c3ccccc31)C2)N1CC2(CCNCC2)c2ccccc21` (stereo partly drawn) [Example 265, N-((aR)-6-(4-oxo-3,4-dihydrophthalazin-1-yl)spiro[3.3]heptan-2-yl)spiro[indoline-3,4′-piperidine]-1-carboxamide], 100 to 2100 nM. `[H][C@]1(c2n[nH]c(=O)c3ccccc32)C[C@]2(C[C@@H](N(C)C(=O)c3nn(C)c4ccccc34)C2)C1` (stereo partly drawn) [Example 266, N,1-dimethyl-N-((aR)-6-(4-oxo-3,4-dihydrophthalazin-1-yl)spiro[3.3]heptan-2-yl)-1H-indazole-3-carboxamide]: the IC50 lay within 100 to 2100 nM. Turning to `[H][C@]1(c2n[nH]c(=O)c3ccccc32)C[C@]2(C[C@@H](N(CC)C(=O)c3nn(C)c4ccccc34)C2)C1` (stereo partly drawn) [Example 267, N-ethyl-1-methyl-N-((aR)-6-(4-oxo-3,4-dihydrophthalazin-1-yl)spiro[3.3]heptan-2-yl)-1H-indazole-3-carboxamide], the 50% inhibitory concentration (IC50) fell in the range of 100 to 2100 nM. Consider `[H][C@]1(c2n[nH]c(=O)c3ccccc32)C[C@]2(C[C@@H](NC(=O)c3cnn4cc(OCC(C)(C)OC(=O)CN)ccc34)C2)C1` (stereo partly drawn) [Example 268, 2-methyl-1-((3-(((aR)-6-(4-oxo-3,4-dihydrophthalazin-1-yl)spiro[3.3]heptan-2-yl)carbamoyl)pyrazolo[1,5-a]pyridin-6-yl)oxy)propan-2-yl2-aminoacetate, TFA], for which the IC50 lay within 0.2 to 2 nM. `[H][C@]1(c2n[nH]c(=O)c3ccccc32)C[C@]2(C[C@@H](NC(=O)c3cnn4cc(OCC(C)(C)OC(=O)[C@@H](N)C(C)C)ccc34)C2)C1` (stereo partly drawn) [Example 269, (S)-2-methyl-1-((3-(((aR)-6-(4-oxo-3,4-dihydrophthalazin-1-yl)spiro[3.3]heptan-2-yl)carbamoyl)pyrazolo[1,5-a]pyridin-6-yl)oxy)propan-2-yl2-amino-3-methylbutanoate, TFA]: the IC50 is 0.2 to 2 nM.

For the molecule `[H][C@]1(c2n[nH]c(=O)c3ccccc32)C[C@]2(C[C@@H](NC(=O)c3cnn4cc(OCC(C)(C)OC(=O)[C@H](C)N)ccc34)C2)C1` (stereo partly drawn) [Example 270, (S)-2-methyl-1-((3-(((aR)-6-(4-oxo-3,4-dihydrophthalazin-1-yl)spiro[3.3]heptan-2-yl)carbamoyl)pyrazolo[1,5-a]pyridin-6-yl)oxy)propan-2-yl2-aminopropanoate, TFA], the IC50 lay in the range of 0.2 to 2 nM.

The values are drawn from patent US9902702B2, “Spirocycloheptanes as inhibitors of rock” (BRISTOL-MYERS SQUIBB COMPANY, priority 2014, dated 2018).
